Measurements published in patent US10731159B2, “Cationic lipid” (DAIICHI SANKYO COMPANY, LIMITED, priority 2013, dated 2020).

How the values were obtained:
Type in all cases: cell-based
human β-catenin gene [1] = assay: Test Example 3: β-catenin gene expression inhibition in SW480 cells, 4 hours, real-time PCR
Experimental: (§1) As described below, the strength of human β-catenin gene expression inhibitory activity was compared among nucleic acid lipid particles each prepared using a novel lipid.
(§2) The concentration of a human colorectal cancer SW480 cell line (derived from human colorectal adenocarcinoma) was adjusted to 50000 cells/mL in a RPMI1640 medium (manufactured by Invitrogen Corp.) containing 10% fetal bovine serum (culture medium). Then, the resulting culture solution was inoculated at 100 μL/well to a 96-well flat-bottomed plate (manufactured by Corning Inc./Falcon) and cultured at 37° C. for 1 day under 5.0% CO2. The nucleic acid lipid particle-containing dispersion prepared in Example 31 was diluted with a culture medium to prepare dilution series having final double-stranded polynucleotide concentrations of 30, 3, 0.3, and 0.03 nM in the medium. Then, each dilution was added to the cells after removal of the culture supernatant, and the culture was further continued for 4 hours. This operation was performed at N=3 for each concentration.
A lysate and cDNA for real-time PCR measurement were prepared from the transfected cells using TaqMan® Fast-Cells-to-Ct kit (Life Technologies, Inc./Ambion) according to the instruction manual. In the lysate preparation, Lysis Solution supplemented with DNase I was used. […]
(§3) The quantitative analysis was conducted by the ΔΔCt method.

human β-catenin gene [2] = assay: Test Example 1: β-catenin gene expression inhibition in SW480 cells, 3 days, real-time PCR; details: nucleic acid lipid particle of Example 31 containing the named lipid, double-stranded polynucleotide concentration, read-out: β-catenin gene expression inhibitory activity IC50
Experimental: as §1
as §2, with “to 50,000” for “to 50000”, “in an” for “in a”, “lipid particle” for “lipid particle-containing”, “30, 3.0,” for “30, 3,”, “for 3 days.” for “for 4 hours.”
(§4) A lysate and cDNA for real-time PCR measurement were prepared from the transfected cells using TaqMan® Fast-Cells-to-Ct kit (Life Technologies, Inc./Ambion) according to the instruction manual. In the lysate preparation, Lysis Solution supplemented with DNase I was used. The probes for real-time PCR used were TaqMan® Gene Expression Assays (CTNNB1, FAM probe) (Hs00355045_m1, manufactured by Applied Biosystems, Inc.) for the human β-catenin gene and a human GAPDH gene probe as an internal standard (VIC probe, Hs99999905_m1, manufactured by Applied Biosystems, Inc.). 5 μL of TaqMan® Fast Advanced Master Mix, 2 μL of RNase-Free Water, 0.5 μL of each gene probe, and 2 μL of the prepared cDNA solution were added per well of a 384-well PCR plate (manufactured by Applied Biosystems, Inc.) to bring the total amount to 10 μL, which was then loaded in ViiA™ 7 Real-time PCR system (manufactured by Applied Biosystems, Inc.) and subjected to PCR under conditions given below. The real-time PCR was carried out at N=4 for the cDNA prepared from the lysate.
PCR initial activation: 95° C. for 20 seconds
PCR: 95° C. for 1 second • 62° C. for 20 seconds
This PCR cycle was repetitively performed 40 times.
as §3

human β-catenin gene [3] = assay: Test Example 8: β-catenin gene expression inhibition in SW480 cells, procedures of Test Example 3, 50-0.05 nM; details: procedures of Test Example 3, 50, 5, 0.5, 0.05 nM, particles of Example 55, read-out: β-catenin gene expression inhibitory activity IC50
Experimental: as §2, §4, §3
By the same procedures as in Test Example 3, SW480 cells were treated with 50 nM, 5 nM, 0.5 nM, and 0.05 nM each of nucleic acid lipid particles each prepared using a novel lipid, and the strength of human β-catenin gene expression inhibitory activity was compared among these particles.

| SMILES | inhibitory activity against β-catenin gene expression (in words) (human β-catenin gene [1]; compared with particle containing lipid compound 1) | IC50 (human β-catenin gene [1]; nucleic acid lipid particle of Example 31 containing the named lipid, read-out: β-catenin gene expression inhibitory activity IC50) [µM] | IC50 (human β-catenin gene [2]) [µM] | IC50 (human β-catenin gene [3]) [µM] |
| --- | --- | --- | --- | --- |
| CCCCC/C=C\C/C=C\CCCCCCCC(CCCCCCCCCC)OC(=O)OCCCN(C)C (stereo not shown) [Example 8, 3-Dimethylaminopropyl(9Z,12Z)-octacosa-19,22-dien-11-yl Carbonate] | strong inhibitory activity | 0.0083 | – | – |
| CCCCC/C=C\C/C=C\CCCCCCCCC(CCCCCCCC/C=C\C/C=C\CCCCC)OC(=O)OCCN(C)C [Reference Example 2, 2-(Dimethylamino)ethyl(6Z,9Z,28Z,31Z)-heptatriaconta-6,9,28,31-tetraen-19-yl Carbonate, reference compound] | – | – | > 0.03 | > 0.05 |
